Reference: patent publication US9403866B2, “Compositions and methods for increasing telomerase activity” (Telomerase Activation Sciences, Inc., priority 2009, dated 2016)
Read-outs that look alike come from different tables or passages of the source.

Key:
telomerase [1] = target: T1, telomerase (Homo sapiens, UniProt O14746); assay: Keratinocyte cell/TRAP assay (HEKneo-P cells); type: cell-based; parameters: host or cells: HEKneo-P (pooled neonatal human epidermal keratinocytes)
Text: Harley et al., U.S. Pat. […] Harley et al., U.S. Pat. […] Non-treatment control (NT) was also included. […]

[2] = parameters: species or system male Beagle dogs; conditions: male, Beagle, dog, in vivo, po, 10 mg/kg
Procedure: The plasma level of a compound following a single intravenous and oral administration in male Beagle dogs was determined. Plasma samples were collected and used to determine the plasma concentration of the compound and metabolites. In addition tissue samples, including whisker samples and PBMC cells were collected for telomerase activity analysis.
(§1) Male Beagle dogs were divided into treatment groups according to Table 5. The dogs were provided ad libitum SLAC-MO1 #W080701 (Shanghai Laboratories Animal Center, Shanghai, China) throughout the in-life portion of the study with the exception of the overnight fasting period prior to oral dosing. Water was available ad libitum.
The compounds were dissolved in 2% EtOH/98% water […] to yield a final concentration of 2.5 mg/ml and 1 mg/ml for both intravenous and oral administration, respectively. The concentration of each compound was confirmed by HPLC analysis.
Doses were administered intravenously via the left femoral vein and then by oral dosing one week later. Body weights were taken on the day of dose administration. Dose volume was determined based on individual body weight taken on day of dosing.
Blood samples (approximately 250 μL) were collected via right femoral vein into tubes containing K2-EDTA anticoagulant and 1 mg/ml NaF at appropriate time points. Blood was stored on ice and then plasma separated via centrifugation (8000 rpm×6 minutes). The plasma was stored at […] until LC-MS/MS analysis.

telomerase [3] = target: T1, telomerase; assay: Peripheral blood monocyte cell (PBMC)/TRAP assay; type: cell-based; parameters: host or cells: HEKneo-P (pooled neonatal human epidermal keratinocytes); conditions: 24 hours
Text: Cell lines suitable for use in the assay, normal human peripheral blood mononuclear cells (PBMCs) or Human Epidermal Keratinocytes (neonatal) (HEKs), can be obtained from commercial sources, such as Cascade Biologics, Portland, Oreg. or 4C Biotech, Seneffe, Belgium, or from the ATCC (American Type Culture Collection). ATCC normal human fibroblast cell lines, which can be located on the ATCC web site, include for example, CCL135, CCL137, and CCL151.
PBMC Isolation. Blood was collected in sodium heparin vacutainers and pooled into a single 50 mL polypropylene tube. Blood was diluted 1:1 with 1×PBS and mixed thoroughly by inversion. 25 mL of diluted blood was layered over 12 mL of Lympholyte-H (Cedarlane Laboratories) and centrifuged at room temperature for 20 min at 800 g. […]
Culture Conditions. The cells were counted using Trypan Blue exclusion and resuspended in complete media that is supplemented with 50 Units of hIL-2/mL so that final concentration of cells is 1×10^6/mL. […] At least once a week, cells are counted and media level is adjusted to keep cells around 5—10^5/mL. […]
Treatment with Analogs. After 10-14 days in culture, cells were counted and resuspended in conditioned media at a concentration of 1×10^6/mL. […]
TRAP Reaction and Gel. Samples were analyzed using a 1-step TRAP PCR reaction. […]

[4] = Plasma levels and bioavailability in rats; conditions: male, Sprague Dawley, rat, in vivo, po, 10 mg/kg
Procedure: The plasma levels of a compound following a single intravenous and oral administration in carotid artery-cannulated male Sprague Dawley rats was determined. Plasma samples were collected and used to determine the plasma concentration of the compound and metabolites. In addition tissue samples, including whisker samples and PBMC cells were collected for telomerase activity analysis.
as §1, with “Carotid artery-cannulated male Sprague Dawley rats” for “Male Beagle dogs”, “6.” for “5.”, “rats” for “dogs”, “# YY080208” for “#W080701”
The compounds were dissolved in 2% EtOH/98% water to yield a final concentration of 2.5 mg/ml and 1 mg/ml for both intravenous and oral administration, respectively. The concentration of each compound was confirmed by HPLC analysis.
Body weights were taken on the day of dose administration. Dose volume was determined based on individual body weight taken on day of dosing.
Blood samples (approximately 250 μL) were collected via cannulae into tubes containing K2-EDTA anticoagulant and 1 mg/ml NaF at the various time points. Blood was stored on ice and then plasma separated via centrifugation (8000 rpm×6 minutes). The plasma was stored at […] until LC-MS/MS analysis.
Percentage of bioavailability was calculated.

T1 sequence (O14746 whole entry): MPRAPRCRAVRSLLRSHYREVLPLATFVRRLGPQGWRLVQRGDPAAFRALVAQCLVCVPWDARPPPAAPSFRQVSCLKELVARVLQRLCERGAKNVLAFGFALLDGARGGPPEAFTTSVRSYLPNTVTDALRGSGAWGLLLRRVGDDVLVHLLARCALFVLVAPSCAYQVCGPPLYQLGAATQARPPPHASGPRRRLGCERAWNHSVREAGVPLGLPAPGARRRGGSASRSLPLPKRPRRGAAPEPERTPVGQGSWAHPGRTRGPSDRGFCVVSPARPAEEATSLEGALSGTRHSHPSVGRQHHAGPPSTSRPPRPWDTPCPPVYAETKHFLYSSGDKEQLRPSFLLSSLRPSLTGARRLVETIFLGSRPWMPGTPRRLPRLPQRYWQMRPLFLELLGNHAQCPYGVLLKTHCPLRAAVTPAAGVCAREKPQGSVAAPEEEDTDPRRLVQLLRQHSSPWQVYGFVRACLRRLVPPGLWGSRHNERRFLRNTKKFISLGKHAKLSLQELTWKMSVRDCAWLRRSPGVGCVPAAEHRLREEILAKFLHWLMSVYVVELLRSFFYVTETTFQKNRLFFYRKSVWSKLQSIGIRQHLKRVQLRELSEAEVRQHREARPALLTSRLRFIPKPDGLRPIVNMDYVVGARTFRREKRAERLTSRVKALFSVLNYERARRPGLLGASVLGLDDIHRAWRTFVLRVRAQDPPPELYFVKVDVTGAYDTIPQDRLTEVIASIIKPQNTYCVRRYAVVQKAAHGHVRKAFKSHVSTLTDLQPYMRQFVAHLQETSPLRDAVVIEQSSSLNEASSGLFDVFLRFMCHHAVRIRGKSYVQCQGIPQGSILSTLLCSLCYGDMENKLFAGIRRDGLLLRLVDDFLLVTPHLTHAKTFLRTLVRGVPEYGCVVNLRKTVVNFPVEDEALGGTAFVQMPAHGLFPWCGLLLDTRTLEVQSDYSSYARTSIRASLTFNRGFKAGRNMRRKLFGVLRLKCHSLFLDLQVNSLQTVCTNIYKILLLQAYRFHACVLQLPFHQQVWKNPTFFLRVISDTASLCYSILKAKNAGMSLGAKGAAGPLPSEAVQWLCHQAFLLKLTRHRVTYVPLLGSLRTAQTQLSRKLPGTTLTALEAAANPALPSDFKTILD

In the case of `CC(C)(O)[C@@H]1CC[C@](C)([C@H]2[C@@H](O)C[C@@]3(C)[C@@H]4C[C@H](O)[C@H]5C(C)(C)[C@@H](O)CC[C@@]56C[C@@]46CC[C@]23C)O1` [Compound 2, 17-[5-(1-Hydroxy-1-methyl-ethyl)-2-methyl-tetrahydro-furan-2-yl]-4,4,13,14-tetramethyl-tetradecahydro-cyclopropa[9,10]cyclopenta[a]phenanthrene-3β,6α,16β-triol, reference compound], the “Max fold increase of activity” value (telomerase [1]) is reported as 3.3 fold, the “Activity in in vitro HEK assay” value (telomerase [1]; 24 hr, 0.01 to 10 μM, vs vehicle control at peak of full dose curve) is reported as “+ (telomerase activation is 2 fold or more in comparison with vehicle control at the peak of the full dose curve.)” and the EC50 (telomerase [1]; telomerase activation) is reported as 30 nM. The “Bioavailability % F” value [2] was 3%, the “Fold increase at 1 μM” value (telomerase [3]) was 1.6-20.7 fold and the “Bioavailability % F” value [4] was 22.6%.
